Experimental data from the supplement of paper PMC10307832.

Columns and labels:
Test in all cases: relative viability (nuclei count vs DMSO), 5 days (fraction); higher = more cells survive
NCI-H647 = test system: NCI-H647
How it was run: (§1)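 Each reported value is a median over duplicate plates. It expresses relative viability: treated-well nuclei count divided by vehicle-well nuclei count. Lung cancer cell lines in 1536-well plates were dosed by pin tool a day after seeding, alone with one drug or with a fixed anchor-drug dose plus five library-drug doses (not always all listed) in √10 steps, and nuclei were counted after 5 days.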

NCI-H2347 = test system: NCI-H2347
How it was run: as §1

PC-14 = test system: PC-14
How it was run: as §1

NCI-H661 = test system: NCI-H661
How it was run: as §1

NCI-H1993 = test system: NCI-H1993
How it was run: as §1

SW 1573 = test system: SW 1573
How it was run: as §1

NCI-H322M = test system: NCI-H322M
How it was run: as §1

NCI-H1915 = test system: NCI-H1915
How it was run: as §1

NCI-H358 = test system: NCI-H358
How it was run: as §1

EMC-BAC-2 = test system: EMC-BAC-2
How it was run: as §1

HOP-62 = test system: HOP-62
How it was run: as §1

NCI-H1563 = test system: NCI-H1563
How it was run: as §1

NCI-H2085 = test system: NCI-H2085
How it was run: as §1

NCI-H727 = test system: NCI-H727
How it was run: as §1

NCI-H2023 = test system: NCI-H2023
How it was run: as §1

LCLC-97TM1 = test system: LCLC-97TM1
How it was run: as §1

LXF-289 = test system: LXF-289
How it was run: as §1

NCI-H2126 = test system: NCI-H2126
How it was run: as §1

H3255 = test system: H3255
How it was run: as §1

SK-LU-1 = test system: SK-LU-1
How it was run: as §1

BEN = test system: BEN
How it was run: as §1

NCI-H2009 = test system: NCI-H2009
How it was run: as §1

CC(C)Oc1cc(Nc2nc(N[C@@H](C)c3ccc(F)cn3)ncc2Cl)n[nH]1 [AZ23] + C[C@]1(O)C[C@@H](c2nc(-c3ccc4ccc(-c5ccccc5)nc4c3)c3c(N)nccn32)C1 [Linsitinib] (partner 1 µM)
relative viability (NCI-H647; first compound 0.01 µM): 1.48 | relative viability (NCI-H647; first compound 0.03162 µM): 1.17 | relative viability (NCI-H647; first compound 0.3162 µM): 1.26 | relative viability (NCI-H2347; first compound 0.01 µM): 1.03 | relative viability (NCI-H2347; first compound 0.03162 µM): 0.993 | relative viability (NCI-H2347; first compound 0.3162 µM): 0.926 | relative viability (PC-14; first compound 0.01 µM): 0.946 | relative viability (PC-14; first compound 0.03162 µM): 1.16 | relative viability (PC-14; first compound 0.3162 µM): 1.03 | relative viability (NCI-H661; first compound 0.01 µM): 0.531 | relative viability (NCI-H661; first compound 0.03162 µM): 0.776 | relative viability (NCI-H661; first compound 0.3162 µM): 0.623 | relative viability (NCI-H1993; first compound 0.01 µM): 0.801 | relative viability (NCI-H1993; first compound 0.3162 µM): 0.724 | relative viability (SW 1573; first compound 0.01 µM): 0.786 | relative viability (SW 1573; first compound 0.03162 µM): 0.937 | relative viability (SW 1573; first compound 0.3162 µM): 0.691 | relative viability (NCI-H322M; first compound 0.01 µM): 0.919 | relative viability (NCI-H322M; first compound 0.03162 µM): 0.957 | relative viability (NCI-H322M; first compound 0.3162 µM): 1.13 | relative viability (NCI-H1915; first compound 0.01 µM): 1.13 | relative viability (NCI-H1915; first compound 0.03162 µM): 1.1 | relative viability (NCI-H1915; first compound 0.3162 µM): 1.09 | relative viability (NCI-H358; first compound 0.01 µM): 0.742 | relative viability (NCI-H358; first compound 0.03162 µM): 0.771 | relative viability (NCI-H358; first compound 0.3162 µM): 0.793 | relative viability (EMC-BAC-2; first compound 0.01 µM): 1.09 | relative viability (EMC-BAC-2; first compound 0.03162 µM): 0.814 | relative viability (EMC-BAC-2; first compound 0.3162 µM): 0.884 | relative viability (HOP-62; first compound 0.01 µM): 1.09 | relative viability (HOP-62; first compound 0.03162 µM): 0.992 | relative viability (HOP-62; first compound 0.3162 µM): 0.95 | relative viability (NCI-H1563; first compound 0.01 µM): 1.14 | relative viability (NCI-H1563; first compound 0.03162 µM): 1.19 | relative viability (NCI-H1563; first compound 0.3162 µM): 1.08 | relative viability (NCI-H2085; first compound 0.01 µM): 1.03 | relative viability (NCI-H2085; first compound 0.03162 µM): 1.02 | relative viability (NCI-H2085; first compound 0.3162 µM): 0.761 | relative viability (NCI-H727; first compound 0.01 µM): 0.354 | relative viability (NCI-H727; first compound 0.03162 µM): 0.281 | relative viability (NCI-H727; first compound 0.3162 µM): 0.277 | relative viability (NCI-H2023; first compound 0.03162 µM): 0.666 | relative viability (NCI-H2023; first compound 0.3162 µM): 0.731 | relative viability (LCLC-97TM1; first compound 0.01 µM): 0.185 | relative viability (LCLC-97TM1; first compound 0.03162 µM): 0.17 | relative viability (LCLC-97TM1; first compound 0.3162 µM): 0.168 | relative viability (LXF-289; first compound 0.01 µM): 1.13 | relative viability (LXF-289; first compound 0.03162 µM): 1.1 | relative viability (LXF-289; first compound 0.3162 µM): 0.941 | relative viability (NCI-H2126; first compound 0.01 µM): 0.737 | relative viability (NCI-H2126; first compound 0.03162 µM): 0.739 | relative viability (NCI-H2126; first compound 0.3162 µM): 0.684 | relative viability (H3255; first compound 0.01 µM): 1.03 | relative viability (H3255; first compound 0.03162 µM): 1.08 | relative viability (H3255; first compound 0.3162 µM): 0.985 | relative viability (SK-LU-1; first compound 0.01 µM): 0.893 | relative viability (SK-LU-1; first compound 0.03162 µM): 1.16 | relative viability (SK-LU-1; first compound 0.3162 µM): 0.932 | relative viability (BEN; first compound 0.01 µM): 1 | relative viability (BEN; first compound 0.03162 µM): 0.966 | relative viability (BEN; first compound 0.3162 µM): 0.977 | relative viability (NCI-H2009; first compound 0.01 µM): 1.17 | relative viability (NCI-H2009; first compound 0.03162 µM): 1.25 | relative viability (NCI-H2009; first compound 0.3162 µM): 1.18
